Experimental data as given in patent US10138247B2, “7-(morpholin-4-yl)pyrazole[1,5-A]pyrimidine derivatives as PI3 kinase inhibitors” (priority 2015, dated 2018).
Where two headings read alike, the source gives them in different places.

Key:
[1] = target: T1, PI3Kα (Homo sapiens, UniProt P42336); assay: PI3K kinases inhibition in vitro (ADP-Glo), PI3Kα; assay type: biochemical
T1 construct: purchased Carna Biosciences
Protocol: (§1) Tested compounds were dissolved in 100% DMSO, and thus obtained solutions were serially diluted in 1× reaction buffer. Recombinant kinase was diluted in a reaction mixture comprising 5× reaction buffer, substrate (1 mM sodium diacetate 4,5-bisphosphate phosphatydylinositol (PIP2) solution in 40 mM Tris buffer), and water. To the wells in a 96-wells plate, 5 μl of compounds solutions and 15 μl of the kinase solution in the reaction mixture were added. To initiate interaction of tested chemical compounds with the enzyme, the plate was incubated for 10 minutes at suitable temperature in a plate thermostat with orbital shaking at 600 rpm. Negative control wells contained all above reagents except tested compound and kinase, and positive control wells contained all above reagents except tested compounds. Enzymatic reaction was initiated by adding 5 μl of 150 μM ATP solution, subsequently the plate was incubated for 1 hour at 25° C. or 30° C. (depending on PI3K isoform tested) in plate thermostat with orbital shaking of the plate contents at 600 rpm. Reaction conditions are presented below in Table 12.
(§2) Detection of ADP formed in the enzymatic reaction was then performed using ADP-Glo Kinase Assay (Promega). To the wells of a 96-well plate 25 μl of ADP-Glo Reagent were added, and the plate was incubated for 40 minutes at 25° C. in a plate thermostat with orbital shaking at 600 rpm. Then to the wells of 96-well plate 50 μl of Kinase Detection Reagent were added and the plate was incubated for 40 minutes at 25° C. in a plate thermostat with orbital shaking at 600 rpm. After incubation time, luminescence intensity in a well was measured by Victor Light luminometer (Perkin Elmer, Inc.).
(§3) IC50 values were determined on the basis of luminescence intensity measurements in wells containing tested compounds at different concentrations and in control wells. These values were calculated with Graph Pad 5.03 software by fitting the curve using non-linear regression. Each compound was tested at least in quadruplicates (4 wells) on two 96-well plates using at least 4 wells of each of the controls.

[2] = target: T2, PI3Kδ (Homo sapiens, UniProt O00329); assay: PI3K kinases inhibition in vitro (ADP-Glo), PI3Kδ; assay type: biochemical
T2 construct: purchased Merck Millipore
Protocol: as §1, §2, §3

[3] = averaged, recombinant kinase, 25° C., 1 h, PIP2 30 μM, read-out: PI3Kδ IC50

T1 sequence (P42336 whole entry): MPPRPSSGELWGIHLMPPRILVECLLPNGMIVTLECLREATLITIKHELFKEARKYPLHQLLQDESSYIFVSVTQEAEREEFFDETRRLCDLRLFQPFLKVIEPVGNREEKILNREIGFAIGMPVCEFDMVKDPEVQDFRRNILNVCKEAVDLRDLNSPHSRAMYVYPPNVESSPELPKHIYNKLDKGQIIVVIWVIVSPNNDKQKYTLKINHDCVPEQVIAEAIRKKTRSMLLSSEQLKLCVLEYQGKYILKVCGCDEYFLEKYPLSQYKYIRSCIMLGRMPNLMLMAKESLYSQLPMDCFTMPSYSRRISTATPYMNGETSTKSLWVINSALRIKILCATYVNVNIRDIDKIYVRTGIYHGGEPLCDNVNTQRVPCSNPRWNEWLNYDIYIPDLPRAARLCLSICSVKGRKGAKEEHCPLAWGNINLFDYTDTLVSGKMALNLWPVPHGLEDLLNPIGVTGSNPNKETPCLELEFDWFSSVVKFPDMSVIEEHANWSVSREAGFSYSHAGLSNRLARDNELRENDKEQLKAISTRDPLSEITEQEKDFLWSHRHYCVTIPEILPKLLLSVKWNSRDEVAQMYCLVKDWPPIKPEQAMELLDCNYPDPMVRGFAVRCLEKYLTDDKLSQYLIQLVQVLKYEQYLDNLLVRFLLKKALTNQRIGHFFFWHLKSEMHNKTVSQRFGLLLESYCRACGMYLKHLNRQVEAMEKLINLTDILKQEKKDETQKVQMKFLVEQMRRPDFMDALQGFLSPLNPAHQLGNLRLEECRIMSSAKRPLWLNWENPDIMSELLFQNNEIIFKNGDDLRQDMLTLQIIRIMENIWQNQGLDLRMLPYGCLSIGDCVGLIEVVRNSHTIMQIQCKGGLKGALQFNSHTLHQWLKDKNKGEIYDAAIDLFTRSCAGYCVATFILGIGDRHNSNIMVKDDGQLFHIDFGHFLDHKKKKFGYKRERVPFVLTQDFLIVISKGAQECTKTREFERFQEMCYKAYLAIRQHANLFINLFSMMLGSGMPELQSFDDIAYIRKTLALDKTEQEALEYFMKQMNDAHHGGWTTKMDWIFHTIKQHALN
T1 sequence (P27986 whole entry partner): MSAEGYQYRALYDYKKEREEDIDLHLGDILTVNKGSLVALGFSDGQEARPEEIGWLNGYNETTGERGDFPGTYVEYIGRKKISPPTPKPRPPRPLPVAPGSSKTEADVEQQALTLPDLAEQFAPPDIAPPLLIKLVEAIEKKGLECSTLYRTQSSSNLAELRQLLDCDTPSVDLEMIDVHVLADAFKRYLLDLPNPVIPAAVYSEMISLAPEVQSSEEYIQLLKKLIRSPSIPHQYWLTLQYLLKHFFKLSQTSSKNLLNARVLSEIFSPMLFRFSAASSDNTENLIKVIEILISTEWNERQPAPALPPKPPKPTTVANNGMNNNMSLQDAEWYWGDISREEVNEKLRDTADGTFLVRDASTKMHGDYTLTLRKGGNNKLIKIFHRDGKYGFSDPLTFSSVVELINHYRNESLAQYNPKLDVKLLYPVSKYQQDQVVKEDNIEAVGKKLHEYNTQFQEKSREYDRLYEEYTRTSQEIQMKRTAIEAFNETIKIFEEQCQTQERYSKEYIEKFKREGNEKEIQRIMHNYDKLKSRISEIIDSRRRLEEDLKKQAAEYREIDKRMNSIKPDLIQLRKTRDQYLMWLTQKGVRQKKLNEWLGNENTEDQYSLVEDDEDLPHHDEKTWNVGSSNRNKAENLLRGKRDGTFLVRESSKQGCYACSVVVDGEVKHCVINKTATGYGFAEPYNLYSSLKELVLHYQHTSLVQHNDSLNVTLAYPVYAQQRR
T2 sequence (O00329 whole entry): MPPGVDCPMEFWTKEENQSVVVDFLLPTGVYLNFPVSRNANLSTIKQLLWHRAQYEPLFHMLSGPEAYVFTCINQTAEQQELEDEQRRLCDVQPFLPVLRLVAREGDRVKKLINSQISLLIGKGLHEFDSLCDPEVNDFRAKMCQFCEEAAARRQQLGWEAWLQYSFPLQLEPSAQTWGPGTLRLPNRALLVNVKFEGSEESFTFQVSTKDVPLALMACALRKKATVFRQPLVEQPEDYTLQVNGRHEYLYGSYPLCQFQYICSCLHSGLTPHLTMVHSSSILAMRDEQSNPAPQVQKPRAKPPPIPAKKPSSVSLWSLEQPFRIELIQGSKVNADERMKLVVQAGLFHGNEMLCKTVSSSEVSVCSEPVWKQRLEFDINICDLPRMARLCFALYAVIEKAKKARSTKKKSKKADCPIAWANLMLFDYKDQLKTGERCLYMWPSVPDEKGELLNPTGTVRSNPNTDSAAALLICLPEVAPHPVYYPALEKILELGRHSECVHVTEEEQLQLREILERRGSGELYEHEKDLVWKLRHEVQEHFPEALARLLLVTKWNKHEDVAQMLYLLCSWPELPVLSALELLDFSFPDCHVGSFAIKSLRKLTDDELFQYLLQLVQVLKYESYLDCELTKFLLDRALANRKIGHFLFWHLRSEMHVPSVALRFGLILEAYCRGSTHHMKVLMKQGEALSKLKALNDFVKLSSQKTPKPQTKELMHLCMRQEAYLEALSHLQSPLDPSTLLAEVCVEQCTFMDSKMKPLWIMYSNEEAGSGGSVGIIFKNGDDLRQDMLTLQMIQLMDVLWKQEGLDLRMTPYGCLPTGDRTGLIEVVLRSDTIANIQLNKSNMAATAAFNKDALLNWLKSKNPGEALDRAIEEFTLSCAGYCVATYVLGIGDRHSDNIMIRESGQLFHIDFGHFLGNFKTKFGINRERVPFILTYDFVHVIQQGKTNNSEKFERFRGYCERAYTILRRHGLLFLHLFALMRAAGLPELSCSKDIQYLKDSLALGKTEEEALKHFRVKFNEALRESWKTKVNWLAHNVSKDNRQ
T2 sequence (P27986 whole entry, further chain): as the sequence (P27986 whole entry partner) above

CS(=O)(=O)N1CCN(Cc2cc3nc(-c4cccc5[nH]ccc45)cc(N4CCOCC4)n3n2)CC1 [Example 2, 5-(1H-indol-4-yl)-2-((4-(methyl-sulphonyl)piperazin-1-yl)methyl)-7-(morpholin-4-yl)pyrazolo[1,5-a]-pyrimidine] was tested, and the IC50 [1] was > 1000 nM and the IC50 [2] was 100 to 1000 nM.

CN1CCN(C2CCN(Cc3cc4nc(-c5cccc6[nH]ccc56)cc(N5CCOCC5)n4n3)CC2)CC1 [Example 3, 5-(1H-indol-4-yl)-2-((4-(4-methylpiperazin-1-yl)piperidin-1-yl)methyl)-7-(morpholin-4-yl)pyrazolo[1,5-a] pyrimidine] was tested, and the IC50 [1] was > 1000 nM and the IC50 [2] was < 100 nM.

In the case of COc1ccc(N2CCN(Cc3cc4nc(-c5cccc6[nH]ccc56)cc(N5CCOCC5)n4n3)CC2)cc1 [Example 6, 5-(1H-indol-4-yl)-2-((4-(4-methoxyphenyl)piperazin-1-yl)-methyl)-7-(morpholin-4-yl)-pyrazolo[1,5-a]pyrimidine], the IC50 [1] is reported as > 1000 nM and the IC50 [2] is reported as 100 to 1000 nM.

With CC(C)(C)N1CCN(Cc2cc3nc(-c4cccc5[nH]ncc45)cc(N4CCOCC4)n3n2)CC1 [Example 12, 2-((4-tert-butylpiperazin-1-yl)methyl)-5-(1H-indazol-4-yl)-7-(morpholin-4-yl)pyrazolo[1,5-a]-pyrimidine] the IC50 [1] was > 1000 nM and the IC50 [2, 3] was < 100 nM.

With CN1CCN(C2CCN(Cc3cc4nc(-c5c(F)ccc6[nH]ccc56)cc(N5CCOCC5)n4n3)CC2)CC1 [Example 14, 5-(5-fluoro-1H-indol-4-yl)-2-((4-(4-methylpiperazin-1-yl)piperidin-1-yl)methyl)-7-(morpholin-4-yl)-pyrazolo[1,5-a]pyrimidine] the IC50 [1] was > 1000 nM and the IC50 [2, 3] was < 100 nM.

With CC(C)(O)C1CCN(Cc2cc3nc(-c4cccc5[nH]ncc45)cc(N4CCOCC4)n3n2)CC1 [Example 15, 2-((4-(2-hydroxypropan-2-yl)-piperidin-1-yl)methyl)-5-(1H-indazol-4-yl)-7-(morpholin-4-yl)-pyrazolo[1,5-a]pyrimidine] the IC50 [1] was > 1000 nM and the IC50 [2, 3] was 100 to 1000 nM.

In the case of CC(C)(O)C1CCN(Cc2cc3nc(-c4cnc(N)nc4)cc(N4CCOCC4)n3n2)CC1 [Example 18, 5-(2-aminopyrimidin-5-yl)-2-((4-(2-hydroxypropan-2-yl)piperidin-1-yl)methyl)-7-(morpholin-4-yl)-pyrazolo[1,5-a]pyrimidine], the IC50 [1] is reported as > 1000 nM and the IC50 [2, 3] is reported as 100 to 1000 nM.

In the case of CN1CCN(Cc2cc3nc(-c4cccc5[nH]ccc45)cc(N4CCOCC4)n3n2)CC1 [Example 21, 5-(1H-indol-4-yl)-2-((4-methyl-piperazin-1-yl)methyl)-7-(morpholin-4-yl)pyrazolo[1,5-a]-pyrimidine], the IC50 [1] is reported as > 1000 nM and the IC50 [2] is reported as 100 to 1000 nM.

With O=S1(=O)CCN(Cc2cc3nc(-c4cccc5[nH]ccc45)cc(N4CCOCC4)n3n2)CC1 [Example 23, 2-((1,1-dioxothio-morpholin-1-yl)-methyl)-5-(1H-indol-4-yl)-7-(morpholin-4-yl)pyrazolo[1,5-a]-pyrimidine] the IC50 [1] was > 1000 nM and the IC50 [2] was 100 to 1000 nM.

COC(=O)C1CCN(Cc2cc3nc(-c4cccc5[nH]ccc45)cc(N4CCOCC4)n3n2)CC1 [Example 24, Methyl 1-((5-(1H-indol-4-yl)-7-(morpholin-4-yl)pyrazolo[1,5-a]-pyrimidin-2-yl)methyl)piperidin-4-carboxylate] was tested, and the IC50 [1] was > 1000 nM and the IC50 [2] was 100 to 1000 nM.

With c1cc(-c2cc(N3CCOCC3)n3nc(CN4CCN(CC5CC5)CC4)cc3n2)c2cc[nH]c2c1 [Example 26, 2-((4-(cyclopropylmethyl)piperazin-1-yl)methyl)-5-(1H-indol-4-yl)-7-(morpholin-4-yl)pyrazolo[1,5-a]-pyrimidine] the IC50 [1] was > 1000 nM and the IC50 [2] was < 100 nM.

With c1cc(-c2cc(N3CCOCC3)n3nc(CN4CCN(C5CCCC5)CC4)cc3n2)c2cc[nH]c2c1 [Example 27, 2-((4-cyclopentylpiperazin-1-yl)-methyl)-5-(1H-indol-4-yl)-7-(morpholin-4-yl)pyrazolo[1,5-a]-pyrimidine] the IC50 [1] was > 1000 nM and the IC50 [2] was < 100 nM.

In the case of c1cc(-c2cc(N3CCOCC3)n3nc(CN4CCN(C5COC5)CC4)cc3n2)c2cc[nH]c2c1 [Example 34], the IC50 [1] is reported as > 1000 nM and the IC50 [2] is reported as < 100 nM.

c1cc(-c2cc(N3CCOCC3)n3nc(CN4C[C@@H]5C[C@H]4CN5C4COC4)cc3n2)c2cc[nH]c2c1 [Example 36, 5-(1H-indol-4-yl)-2-(((1S, 4S)-2-(oxetan-3-yl)-2,5-diazabicyclo [2.2.1]hept-2-yl)methyl)-7-(morpholin-4-yl)pyrazolo[1,5-a]-pyrimidine] was tested, and the IC50 [1] was > 1000 nM and the IC50 [2] was < 100 nM.

With O=C(Nc1ccccc1)NC1CCN(Cc2cc3nc(-c4cccc5[nH]ccc45)cc(N4CCOCC4)n3n2)CC1 [Example 37] the IC50 [2] was 100 to 1000 nM.

In the case of CCNC(=O)NC1CCN(Cc2cc3nc(-c4cccc5[nH]ccc45)cc(N4CCOCC4)n3n2)CC1 [Example 38], the IC50 [1] is reported as > 1000 nM and the IC50 [2] is reported as 100 to 1000 nM.

In the case of CCc1nc2ccccc2n1-c1cc(N2CCOCC2)n2nc(CN3CCN(S(C)(=O)=O)CC3)cc2n1 [Example 42, 5-(2-ethylbenzimidazol-1-yl)-2-((4-(methylsulphonyl)piperazin-1-yl)methyl)-7-(morpholin-4-yl)-pyrazolo[1,5-a]pyrimidine], the IC50 [1] is reported as > 1000 nM and the IC50 [2, 3] is reported as 100 to 1000 nM.

CCc1nc2ccccc2n1-c1cc(N2CCOCC2)n2nc(CN3CCC(N(C)C)CC3)cc2n1 [Example 43, 5-(2-ethylbenzimidazo-1-yl)-2-((4-(dimethylamino)piperidin-1-yl)-methyl)-7-(morpholin-4-yl)-pyrazolo[1,5-a]pyrimidine] was tested, and the IC50 [1] was > 1000 nM and the IC50 [2, 3] was 100 to 1000 nM.

With CCc1nc2ccccc2n1-c1cc(N2CCOCC2)n2nc(CN3CCN(C(C)(C)C)CC3)cc2n1 [Example 47, 5-(2-ethylbenzimidazol-1-yl)-2-((4-tert-butylpiperazin-1-yl)methyl)-7-(morpholin-4-yl)pyrazolo[1,5-a]-pyrimidine] the IC50 [1] was > 1000 nM and the IC50 [2, 3] was < 100 nM.

With Cc1nc2ccccc2n1-c1cc(N2CCOCC2)n2nc(CN3CCN(C(C)(C)C)CC3)cc2n1 [Example 48, 5-(2-methylbenzimidazol-1-yl)-2-((4-tert-butylopiperazin-1-yl)-methyl)-7-(morpholin-4-yl)-pyrazolo[1,5-a]pyrimidine] the IC50 [1] was > 1000 nM and the IC50 [2, 3] was 100 to 1000 nM.

For Cc1nc2ccccc2n1-c1cc(N2CCOCC2)n2nc(CN3CCC(C(C)(C)O)CC3)cc2n1 [Example 49, 5-(2-methylbenzimidazol-1-yl)-2-((4-(2-hydroxypropan-2-yl)-piperidin-1-yl)methyl)-7-(morpholin-4-yl)pyrazolo[1,5-a]-pyrimidine], the IC50 [1] was > 1000 nM and the IC50 [2, 3] was 100 to 1000 nM.

For CC(C)c1nc2ccccc2n1-c1cc(N2CCOCC2)n2nc(CN3CCN(C(C)(C)C)CC3)cc2n1 [Example 52, 5-(2-iso-propylbenzimidazol-1-yl)-2-((4-tert-butylpiperazin-1-yl)-methyl)-7-(morpholin-4-yl)-pyrazolo[1,5-a]pyrimidine], the IC50 [1] was > 1000 nM and the IC50 [2, 3] was 100 to 1000 nM.

For CC(C)c1nc2ccccc2n1-c1cc(N2CCOCC2)n2nc(CN3CCC(C(C)(C)O)CC3)cc2n1 [Example 53, 5-(2-iso-propylbenzimidazol-1-yl)-2-((4-(2-hydroxypropan-2-yl)-piperidin-1-yl)methyl)-7-(morpholin-4-yl)pyrazolo[1,5-a]-pyrimidine], the IC50 [1] was > 1000 nM and the IC50 [2, 3] was 100 to 1000 nM.

With CC(C)(C)N1CCN(Cc2cc3nc(-n4c(C5CC5)nc5ccccc54)cc(N4CCOCC4)n3n2)CC1 [Example 54, 5-(2-cyclopropylbenzimidazol-1-yl)-2-((4-tert-butylpiperazin-1-yl)-methyl)-7-(morpholin-4-yl)-pyrazolo[1,5-a]pyrimidine] the IC50 [1] was > 1000 nM and the IC50 [2, 3] was 100 to 1000 nM.

With CC(C)(O)C1CCN(Cc2cc3nc(-n4c(C5CC5)nc5ccccc54)cc(N4CCOCC4)n3n2)CC1 [Example 55, 5-(2-cyclopropylbenzimidazol-1-yl)-2-((4-(2-hydroxypropan-2-yl)-piperidin-1-yl)methyl)-7-(morpholin-4-yl)pyrazolo[1,5-a]-pyrimidine] the IC50 [1] was > 1000 nM and the IC50 [2, 3] was 100 to 1000 nM.

For C[C@@H]1CN(C2CN(Cc3cc4nc(-n5c(C(F)F)nc6ccccc65)cc(N5CCOCC5)n4n3)C2)C[C@H](C)O1 [Example 65, 5-(2-(difluoromethyl)benzimidazol-1-yl)-2-((3-((2R,6S)-2,6-dimethylmorpholin-4-yl)azetidin-1-yl)methyl)-7-(morpholin-4-yl)-pyrazolo[1,5-a]pyrimidine], the IC50 [2, 3] was < 100 nM.

In the case of COC1CN(C2CN(Cc3cc4nc(-n5c(C(F)F)nc6ccccc65)cc(N5CCOCC5)n4n3)C2)C1 [Example 67, 5-(2-(difluoromethyl)benzimidazol-1-yl)-2-((3-(3-methoxyazetidin-1-yl)azetidin-1-yl)methyl)-7-(morpholin-4-yl)pyrazolo[1,5-a]-pyrimidine], the IC50 [2, 3] is reported as < 100 nM.
